From a melting point compilation (Tetko et al.; mined from patent text by program, amines drawn as free bases though some values may be those of a salt)

Row | SMILES | melting point [°C]
1 | FC(F)(F)CSc1nc(-c2ccccc2)c(-c2ccccc2)[nH]1 | 186 to 187
2 | O=S1(=O)c2cccc3cccc(c23)N1CCN1CCC(Cc2c[nH]c3ccc(F)cc23)CC1 | 161
3 | CN1CCN(c2ccccc2C=C2NC(=O)N(c3ccc(Cl)cc3)C2=O)CC1 | 193 to 194
4 | O=C(c1cccs1)C1CCN(CCc2ccccc2)CC1 | 77 to 79
5 | CN1CCC(O)(C2CC(c3ccc(-c4ccc(N5C[C@H](Cn6ccnn6)OC5=O)cc4F)cn3)=NO2)CC1 (stereo not given in full) | 73
6 | OCc1nnc(-c2cc3c(OC[C@@H](O)CN4CCC(c5ccc(Cl)c(Cl)c5)CC4)cccc3o2)o1 | 158 to 160
7 | c1ccc2c(C3CCC4(CC3)OCCO4)c[nH]c2c1 | 163 to 165
8 | CC(C)NC1=NS(=O)(=O)c2cc([N+](=O)[O-])ccc2N1 | 311 to 313
9 | COc1ccc(CN2CCN(NC(=O)c3cc(Cl)c(N)cc3OC)CC2)cc1 | 154 to 156
10 | COc1cc(COc2cc(C=O)n(-c3ccccc3)n2)ccc1OCc1nc(-c2ccccc2)oc1C | 119 to 120
11 | COc1cc(C2CCN(CC(O)CF)CC2)ccc1Nc1ncc2ccc(-c3ccccc3OC)n2n1 (stereo not given) | 73 to 79
12 | CCn1cc(C(=O)O)c(=O)c2cc(C)sc21 | 229 to 230
13 | CN(C)C=CC(=O)C1CC1 | 55
14 | CCOc1ccc(NC(=S)SC)cc1F | 108
15 | CCCCCCNCCCS(=O)(=O)O | 144 to 147
16 | O=c1[nH]c(=O)c2cccnc2[nH]1 | 360
17 | COC(=O)C1CC(C#N)(c2ccccc2Cl)CCC1=O (stereo not given) | 113 to 118
18 | Cc1sc(N2CCCCC2)nc1C=Cc1cn(-c2ccccc2)nc1O | 224 to 226
19 | NP(N)(=O)NC(=O)c1ccsc1 | 269 to 278
20 | OC(c1ccc(Cl)cc1)c1cccnc1-n1ccnc1 (stereo not given) | 133 to 134
21 | CN(CCO)c1ccncc1 | 90 to 91
22 | NC(Cc1cccc(O)c1)c1ccccc1 (stereo not given) | 179 to 181

Row | SMILES | melting point [°C]
23 | O=C1C(=O)c2ccccc2C2=C1SCC1(CCN(CC(O)COc3ccc(Cl)cc3)CC1)O2 (stereo not given) | 138 to 140
24 | COCCON=C(C1=C(O)C(=O)N(c2ccc(C)nn2)C1c1ccc(OC(F)(F)F)cc1)c1ccc(C(C)C)cc1 (stereo not given) | 115 to 118
25 | Cc1nc(-c2cc3c(OC[C@@H](O)CN4CCC(c5ccc6ccccc6c5)CC4)cccc3o2)no1 | 146 to 148
26 | CNc1ccnc(Cl)c1N | 166 to 168
27 | CN1CCC2(C)c3cc(OC(=O)N4CCc5ccccc5C4)ccc3N(C)C12 (stereo not given) | 118 to 119
28 | N#Cc1cc(-c2ccoc2)c2ccc(COc3cc(F)cc(-c4ccc(F)cc4)c3)cc2n1 | 177 to 180
29 | CC(C)c1nc(-n2cnc3ccccc32)sc1/C=C/C(=O)O | 262 to 264
30 | CC(C)(C(=O)Cl)C(=S)Cl | 112 to 114
31 | CN1C(=O)c2[nH]c3cc(Cl)ccc3c2Oc2ccccc21 | 306 to 307
32 | NCc1c(NC2CCCCC2)cccc1-c1ccccc1 | 95 to 96
33 | CN(C)C1CCC2c3ccccc3Sc3ccc(C(F)(F)F)cc3N2C1 (stereo not given) | 118 to 122
34 | CC(C(N)=O)c1ccc2c(c1)C(=O)Cc1cc(C(F)(F)F)ccc1S2 (stereo not given) | 159 to 161
35 | Cc1nnc2ncc(-c3cccc(C(F)(F)F)c3)nn12 | 265 to 268
36 | O=C1N(Cc2ccc(-c3ccccn3)cc2)c2ccccc2C12COc1cc3c(cc12)CCO3 (stereo not given) | 217 to 219
37 | Nc1cc(Cl)c(Cl)c(Br)c1[N+](=O)[O-] | 132 to 134
38 | CC(C)(C)OC(=O)N(Cc1ncccc1C(N)=NO)C(=O)OC(C)(C)C | 178 to 180
39 | COc1cccc(C2=Nc3ccc(N4CCCC4)cc3C(=O)C2)c1OC | 258 to 260
40 | COc1ccc(-c2nc(Sc3ccccc3)n(Cc3ccccc3)c2-c2ccc(OC)cc2)cc1 | 113 to 115
41 | ON=C(CCC(CN1CCN(c2ncccn2)CC1)C(=NO)c1ccccc1)c1ccccc1 (stereo not given) | 75 to 78
42 | COc1ccccc1C1(O[Si](C)(C)C)C(=O)Nc2ccc(Cl)cc21 (stereo not given) | 185 to 187
43 | c1cc2c3c(ccc(OCCCN4CCCCC4)c3c1)-c1cc(OCCCN3CCCCC3)ccc1-2 | 92 to 93
44 | CCc1nnc2c(O)nc3cc(OC)ccc3n12 | > 250

Row | SMILES | melting point [°C]
45 | Cc1[nH]cc2c(=O)n(-c3ccc(Cl)cc3)nc-2c1-c1ccc(-c2cccnc2)cc1 | 308 to 309
46 | CCS(=O)c1ccc(-c2coc3ccc(-c4nnc(C)o4)nc23)cc1 (stereo not given) | 207 to 208
47 | O=C(O)C1(Cc2ccccc2)CCN(Cc2ccccc2)C1 (stereo not given) | 209 to 210
48 | O=[N+]([O-])c1c(C2C=CCCC2)ccnc1Cl (stereo not given) | 54.5 to 55.4
49 | CC(C)(C)CNc1nnc(-c2ccccc2)c2ccccc12 | 216
50 | CNC(=C[N+](=O)[O-])NCc1cccnc1 | 159 to 160
51 | O=C(Oc1ccc(Oc2ccc(C(F)(F)F)cn2)cc1)N1CCN(c2cnccn2)CC1 | 160 to 161
52 | COc1ccc(F)c(N)c1 | 27 to 28
53 | Cc1ccc2c(c1)C(c1ccccc1)=NCc1nnc(CN(C)C)n1-2 | 154 to 156
54 | COC(=O)C(C(C)C)S(=O)(=O)Nc1nc(OC)cc(OC)n1 (stereo not given) | 94 to 95
55 | CCC(C)(C)C1=CC(=CC(=O)O)C=C(C(C)(C)CC)C1=O | 109 to 110
56 | CSc1cc(C(C)=O)ccc1OCCCBr | 120 to 122
57 | Cn1cncc1C(O)(c1ccoc1)c1ccc2nc(Cl)cc(-c3cccc(Cl)c3)c2c1 (stereo not given) | 246
58 | Cc1cc(Oc2[nH]c(=O)[nH]c(=O)c2C(C)C)cc(C2OCCO2)c1 | 201 to 203
59 | CS(=O)(=O)ON=C(C#N)C=Cc1ccccc1 | 127 to 129
60 | COc1ccc(-c2cc(-c3ccc(-c4c(Cc5ccccc5)oc5ccccc45)cc3)ccc2OC(Cc2ccccc2)C(=O)O)cc1 (stereo not given) | 73 to 75
61 | O=C(NCCCl)NC(c1cccc(C(F)(F)F)c1)C(F)(F)F (stereo not given) | 124 to 128
62 | O=C(CCN1CCN(c2ncccn2)CC1)N1CC2CC3CC(C2)CC1C3 | 117 to 119
63 | O=C(O)CCCOc1cccc2c1Cc1sc(SCC(c3ccccc3)c3ccccc3)nc1-2 | 137 to 138
64 | CCOC(=O)C(=CNc1nccs1)C(=O)c1ccc(Cl)nc1Cl | 119 to 122

Now from value to compound:

Row | melting point [°C] | SMILES
65 | 116 to 119 | CC(C(=O)O)c1ccc(-c2ccccc2[N+](=O)[O-])cc1 (stereo not given)
66 | 160 | COc1cc2c(cc1OC)CN(CCCOc1ccc(NC(=O)c3cccc4c(=O)c5cccc(C)c5[nH]c34)c(C)c1)CC2
67 | 171 to 172 | N#Cc1ccc2oc(CCc3ccc(C(=O)On4nnc5ccccc54)cc3)cc2c1
68 | 102 to 112 | Cc1cccc(C(=O)NO)c1N(C)S(=O)(=O)c1ccc(OCCCNC(=O)c2ccc3c(c2)OCO3)cc1
69 | 226 to 228 | CCOc1nnc2c3ccc(Cl)cc3c(-c3ccccc3)nn12
70 | 241 to 246 | CCNC(=O)Nc1ncc(-c2ccncc2)cn1
71 | 39 to 40 | CC(C)c1cc(O)ccc1OCc1ccccc1
72 | 123 to 125 | O=C(c1cccs1)c1cnn2c(-c3cccc(NC/C=C/c4ccccc4)c3)ccnc12
73 | 173 to 175 | CS/C(NC(=O)c1ccc(SC)cc1)=C(\C#N)C(=O)Nc1ccc(C)cc1
74 | 264 to 267 | Oc1ccc(-c2nc3cc(O)ccc3o2)cc1
75 | 107 to 109 | COC(=O)COc1cccc(-c2nc(COc3ccc(COc4nn(-c5ccccc5)cc4C=O)cc3OC)c(C)o2)c1
76 | 214 to 216 | Cc1ccc(-c2ccc3c(c2)C=C(C(=O)Nc2ccc(-c4cccnc4)cc2)CCO3)cc1
77 | 178 to 180 | COC(=O)c1cccc(NC(=O)NS(=O)(=O)c2ccc(C)cc2)c1
78 | 254 to 255 | O=C(Nc1cccnn1)N1CCN(c2cc(-c3ccc(F)cc3)ncn2)CC1
79 | 153 to 154 | CC(C)(C)c1ccc(NC(=O)N2CCC3(CC2)CC(CCc2ccccc2)=NO3)cc1
80 | 165 to 166 | CNC(=O)c1cccc(NC(=O)Cc2ccc(Br)cc2)c1
81 | 134 to 136 | C=C(c1ccc(C)cc1)c1ccc(N2CCCC2)cc1
82 | 133 to 140 | CNC(=O)CCC(=O)c1ccc(OCC2CO2)cc1 (stereo not given)

Row | melting point [°C] | SMILES
83 | 138 to 140 | CCCCOCCOc1ccc(-c2ccc(N3CC=CC3)c(C=C(C)C(=O)O)c2)cc1
84 | 134 to 135 | CC(C)CCOc1c(-c2ccc(S(C)(=O)=O)cc2)cnn(-c2cccc(Cl)c2)c1=O
85 | 231 to 232 | O=C(NCc1ccccn1)Nc1cc(-n2c(=O)n(-c3ccccc3)c3ccccc32)ccn1
86 | 183 to 184 | Cc1nn(Cc2cccc(Cl)c2)cc1C(=O)CC(=O)C(=O)O
87 | 271 | COc1ccc(C(=O)C2=C(O)C(=O)N(c3nnc(C(F)(F)F)s3)C2c2ccc(C(C)(C)C)cc2)cc1 (stereo not given)
88 | 173 to 175 | Cn1c(CC(=O)O)ccc1C(=O)c1ccc(N)cc1
89 | 191 to 192 | COC(=O)c1nccnc1Nc1ccc(Cl)cc1[N+](=O)[O-]
90 | 159 to 160 | CCCCN(C1c2cc(OCc3ccccc3)ccc2OC(C)(C)C1O)S(C)(=O)=O (stereo not given)
91 | 121 to 122 | CC(=O)c1cc(NS(C)(=O)=O)ccc1O
92 | 188 to 190 | CC(C)(C)c1cc(C(=O)c2ccc(O)cc2)cc(C(C)(C)C)c1O
93 | 177 | C/C(=C\c1ccc(OC(C)C)cc1Oc1ncc(C(F)(F)F)cc1Cl)C(=O)NS(=O)(=O)NC1CCC(C)CC1 (stereo not given)
94 | 79 to 80 | C=CCc1cc(C(=O)OC(C)C)ccc1O
95 | 135 to 137 | CCOC(=O)CN(c1cccc2cc(-c3nccs3)[nH]c12)S(=O)(=O)c1cccs1
96 | 94 to 95 | COc1ccc(S(=O)(=O)N(COCC[Si](C)(C)C)c2ccccc2-c2cc(F)ccc2C(C)=O)cc1
97 | 112 to 114 | COc1ccc(NN=C(Sc2ccccc2C)C(C)=O)cc1
98 | 151 | CC1(C)OC(O)C(Oc2ccc(F)c(F)c2)=C1c1ccc(S(C)(=O)=O)cc1 (stereo not given)
99 | > 300 | O=C(O)c1cccc2c1Cc1c-2[nH]c2ccc(F)cc12
100 | 246 to 248 | Oc1ccc(Nc2ccncc2)cc1
